# Calls of active or inactive are those of the source. No cut-off for these calls is given here.
# Columns and labels:
# [1] = system: MDA-MB-231; assay: Antimigratory activity against tetracycline-induced KRS T52D mutant overexpressing human MDA-MB-231 cells assessed as inhibition of cell migration at 3 uM measured after 4 hrs by flourescence plate reader method; type: functional
# [2] = biological target: T1, Lysine--tRNA ligase (Homo sapiens, UniProt Q15046); assay: Binding affinity to human N-terminal His6-tagged 15N-labelled KRS (1 to 207 residues) expressed in Escherichia coli BL21(DE3) measured by flourescence based binding titration assay
# Target sequence in this assay (Q15046 whole entry, the tested form may be a part): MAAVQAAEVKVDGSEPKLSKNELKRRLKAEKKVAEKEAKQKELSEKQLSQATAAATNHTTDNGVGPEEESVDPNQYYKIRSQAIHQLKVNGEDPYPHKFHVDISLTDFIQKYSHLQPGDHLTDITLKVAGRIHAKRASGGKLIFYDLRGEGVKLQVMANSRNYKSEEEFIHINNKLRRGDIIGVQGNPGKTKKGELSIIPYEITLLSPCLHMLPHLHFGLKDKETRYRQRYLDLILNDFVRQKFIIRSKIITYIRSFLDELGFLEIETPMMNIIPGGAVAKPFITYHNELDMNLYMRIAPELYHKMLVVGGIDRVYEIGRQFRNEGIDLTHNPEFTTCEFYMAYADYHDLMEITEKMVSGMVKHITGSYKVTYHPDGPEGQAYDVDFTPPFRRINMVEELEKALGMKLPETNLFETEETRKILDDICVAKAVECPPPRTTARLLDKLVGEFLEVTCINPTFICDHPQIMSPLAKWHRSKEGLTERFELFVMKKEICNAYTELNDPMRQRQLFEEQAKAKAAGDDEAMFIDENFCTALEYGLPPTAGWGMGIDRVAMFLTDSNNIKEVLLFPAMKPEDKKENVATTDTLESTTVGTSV
# [3] = biological target: T1, Lysine--tRNA ligase; assay: Binding affinity to human N-terminal His6-tagged 15N-labelled KRS (1 to 207 residues) expressed in Escherichia coli BL21(DE3) at 0.4 mM by 1H-15N TROSY NMR analysis
# Target sequence in this assay (Q15046 2-597 limits assumed): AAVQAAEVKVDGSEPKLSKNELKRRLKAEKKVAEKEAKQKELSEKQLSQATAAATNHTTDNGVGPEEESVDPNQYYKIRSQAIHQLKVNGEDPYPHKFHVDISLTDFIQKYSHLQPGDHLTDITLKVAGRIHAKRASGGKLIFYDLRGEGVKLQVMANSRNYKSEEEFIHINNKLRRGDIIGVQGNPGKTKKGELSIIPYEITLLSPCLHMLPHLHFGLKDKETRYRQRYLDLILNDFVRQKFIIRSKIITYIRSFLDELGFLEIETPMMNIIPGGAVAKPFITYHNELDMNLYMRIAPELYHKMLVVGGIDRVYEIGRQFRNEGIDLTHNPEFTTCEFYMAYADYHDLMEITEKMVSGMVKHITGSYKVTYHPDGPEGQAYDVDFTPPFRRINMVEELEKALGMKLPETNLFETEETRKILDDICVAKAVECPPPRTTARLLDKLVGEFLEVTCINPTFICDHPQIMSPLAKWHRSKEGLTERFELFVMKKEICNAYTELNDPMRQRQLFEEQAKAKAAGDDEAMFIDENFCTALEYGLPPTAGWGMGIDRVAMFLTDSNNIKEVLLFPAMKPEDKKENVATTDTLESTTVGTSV
# [4] = system: NCI-H226; assay: Antimigratory activity against human NCI-H226 cells assessed as inhibition of cell migration measured after 12 hrs by Transwell assay; type: functional, cell-based; conditions: NCI-H226, 12 h
# [5] = Permeability of the compound at 50 uM measured after 4 hrs by PAMPA assay; type: ADME; conditions: read-out: permeability
# [6] = AUC(infinity) in mouse at 5 mg/kg, iv measured after 24 hrs; type: ADME, organism-based; design: route intravenous, time 24 hrs, dose 5 mg/kg; conditions: in vivo
# [7] = Cmax in mouse at 5 mg/kg, po measured after 24 hrs; type: ADME, organism-based; design: route oral, dose 5 mg/kg, time 24 hrs; conditions: in vivo
# [8] = Volume of distribution at steady state in mouse at 5 mg/kg, iv measured after 24 hrs; type: ADME, organism-based; conditions: in vivo, read-out: Vdss
# [9] = biological target: CYP2C19 (Homo sapiens, UniProt P33261); assay: Inhibition of CYP2C19 (unknown origin) assessed as enzyme residual activity at 10 uM; type: ADME; conditions: read-out: Activity
# Sequence of CYP2C19 (P33261 whole entry): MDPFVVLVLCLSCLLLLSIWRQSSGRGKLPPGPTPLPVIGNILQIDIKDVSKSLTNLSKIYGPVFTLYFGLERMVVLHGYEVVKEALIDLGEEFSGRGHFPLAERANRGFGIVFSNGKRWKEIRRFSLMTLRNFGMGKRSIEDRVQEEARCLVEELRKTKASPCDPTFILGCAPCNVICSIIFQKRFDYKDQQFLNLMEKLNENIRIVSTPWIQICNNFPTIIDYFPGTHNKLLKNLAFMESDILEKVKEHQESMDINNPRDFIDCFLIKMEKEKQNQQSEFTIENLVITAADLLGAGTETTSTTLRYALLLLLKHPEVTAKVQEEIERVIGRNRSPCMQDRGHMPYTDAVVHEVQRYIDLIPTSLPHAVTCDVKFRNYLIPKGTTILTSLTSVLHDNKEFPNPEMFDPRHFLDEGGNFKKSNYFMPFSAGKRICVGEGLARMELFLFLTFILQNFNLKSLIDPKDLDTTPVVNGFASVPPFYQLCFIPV
# [10] = Toxicity in Balb/cAnCr mouse xenografted with mouse 4T1 cells assessed as change in body weight at 100 mg/kg, po administered for 16 days; type: organism-based; conditions: in vivo, 384 h, time 16 day
# [11] = Metabolic stability in dog liver microsomes assessed as parent compound remaining measured after 30 mins; type: ADME, Canis lupus familiaris, Microsome; conditions: read-out: Stabilty
# [12] = Metabolic stability in rat liver microsomes assessed as parent compound remaining measured after 30 mins; type: ADME, Microsome; conditions: read-out: Stabilty
# [13] = Clearance in mouse at 5 mg/kg, iv measured after 24 hrs; type: ADME, organism-based; conditions: in vivo
# [14] = Oral bioavailability in mouse at 5 mg/kg measured after 24 hrs; type: ADME, organism-based; conditions: in vivo
# [15] = system: 4T1; assay: Anti-metastasis activity in mouse 4T1 cells xenografted in BALB/cAnCr mouse at 100 mg/kg, po administered for 16 days; type: functional, organism-based; conditions: time 16.0 day
# [16] = Half life in mouse at 5 mg/kg, iv measured after 24 hrs; type: ADME, organism-based; conditions: in vivo
# [17] = biological target: CYP3A4 (Homo sapiens, UniProt P08684); assay: Inhibition of CYP3A4 (unknown origin) assessed as enzyme residual activity at 10 uM; type: ADME; conditions: read-out: Activity
# Sequence of CYP3A4 (P08684 whole entry): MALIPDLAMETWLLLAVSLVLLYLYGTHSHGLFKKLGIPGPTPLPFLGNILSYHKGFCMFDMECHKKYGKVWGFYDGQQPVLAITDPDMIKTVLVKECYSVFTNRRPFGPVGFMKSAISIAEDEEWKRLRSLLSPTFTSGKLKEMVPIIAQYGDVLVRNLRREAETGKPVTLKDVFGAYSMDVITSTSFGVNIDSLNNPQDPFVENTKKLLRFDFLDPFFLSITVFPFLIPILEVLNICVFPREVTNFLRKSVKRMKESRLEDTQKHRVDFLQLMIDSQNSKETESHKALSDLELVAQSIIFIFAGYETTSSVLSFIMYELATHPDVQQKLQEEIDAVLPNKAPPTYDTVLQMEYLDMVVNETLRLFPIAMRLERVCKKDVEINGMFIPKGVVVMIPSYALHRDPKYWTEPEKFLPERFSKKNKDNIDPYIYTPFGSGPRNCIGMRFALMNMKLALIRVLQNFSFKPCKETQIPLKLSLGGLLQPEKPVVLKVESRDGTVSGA
# [18] = system: MDA-MB-231; assay: Antimigratory activity against tetracycline-induced KRS T52D mutant overexpressing human MDA-MB-231 cells assessed as inhibition of cell migration measured after 4 hrs by flourescence plate reader method; type: functional, cell-based; conditions: MDA-MB-231, 4 h
# [19] = biological target: CYP2D6 (Homo sapiens, UniProt P10635); assay: Inhibition of CYP2D6 (unknown origin) assessed as enzyme residual activity at 10 uM; type: ADME; conditions: read-out: Activity
# Sequence of CYP2D6 (P10635 whole entry): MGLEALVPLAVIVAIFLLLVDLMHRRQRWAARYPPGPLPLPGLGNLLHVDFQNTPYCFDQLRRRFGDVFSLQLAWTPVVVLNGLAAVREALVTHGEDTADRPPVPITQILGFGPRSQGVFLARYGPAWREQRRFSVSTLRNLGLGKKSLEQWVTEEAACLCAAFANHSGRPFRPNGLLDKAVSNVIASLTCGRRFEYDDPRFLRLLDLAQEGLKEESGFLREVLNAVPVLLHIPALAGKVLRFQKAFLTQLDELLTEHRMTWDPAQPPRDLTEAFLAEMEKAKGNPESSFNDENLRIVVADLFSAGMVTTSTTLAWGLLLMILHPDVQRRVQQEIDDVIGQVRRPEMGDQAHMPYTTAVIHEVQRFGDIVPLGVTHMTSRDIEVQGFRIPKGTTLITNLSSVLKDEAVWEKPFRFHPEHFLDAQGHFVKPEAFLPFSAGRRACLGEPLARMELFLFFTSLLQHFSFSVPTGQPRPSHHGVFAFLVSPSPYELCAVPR
# [20] = AUC(t) in mouse at 5 mg/kg, po measured after 24 hrs; type: ADME, organism-based; design: route oral, time 24 hrs, dose 5 mg/kg; conditions: in vivo
# [21] = Half life in mouse at 5 mg/kg, po measured after 24 hrs; type: ADME, organism-based; conditions: in vivo
# [22] = Tmax in mouse at 5 mg/kg, po measured after 24 hrs; type: ADME, organism-based; conditions: in vivo
# [23] = biological target: CYP2C9 (Homo sapiens, UniProt P11712); assay: Inhibition of CYP2C9 (unknown origin) assessed as enzyme residual activity at 10 uM; type: ADME; conditions: read-out: Activity
# Sequence of CYP2C9 (P11712 whole entry): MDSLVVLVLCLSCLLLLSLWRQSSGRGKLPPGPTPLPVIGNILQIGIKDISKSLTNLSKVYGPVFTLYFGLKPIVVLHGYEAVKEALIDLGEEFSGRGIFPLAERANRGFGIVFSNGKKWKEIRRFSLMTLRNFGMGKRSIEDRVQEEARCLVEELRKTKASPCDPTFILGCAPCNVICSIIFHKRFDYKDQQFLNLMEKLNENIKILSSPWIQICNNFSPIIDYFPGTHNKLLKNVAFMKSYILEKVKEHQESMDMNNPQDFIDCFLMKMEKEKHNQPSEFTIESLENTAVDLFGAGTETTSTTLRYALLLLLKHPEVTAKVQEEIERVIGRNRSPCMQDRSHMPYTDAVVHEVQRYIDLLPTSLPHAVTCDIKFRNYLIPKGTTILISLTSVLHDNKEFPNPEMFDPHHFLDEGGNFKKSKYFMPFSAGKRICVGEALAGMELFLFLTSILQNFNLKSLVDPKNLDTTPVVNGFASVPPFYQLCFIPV
# [24] = biological target: T2, CYP1A2 (Homo sapiens, UniProt P05177); assay: Inhibition of CYP1A2 (unknown origin) assessed as enzyme residual activity at 10 uM; type: ADME; conditions: read-out: Activity
# T2 sequence (P05177 whole entry): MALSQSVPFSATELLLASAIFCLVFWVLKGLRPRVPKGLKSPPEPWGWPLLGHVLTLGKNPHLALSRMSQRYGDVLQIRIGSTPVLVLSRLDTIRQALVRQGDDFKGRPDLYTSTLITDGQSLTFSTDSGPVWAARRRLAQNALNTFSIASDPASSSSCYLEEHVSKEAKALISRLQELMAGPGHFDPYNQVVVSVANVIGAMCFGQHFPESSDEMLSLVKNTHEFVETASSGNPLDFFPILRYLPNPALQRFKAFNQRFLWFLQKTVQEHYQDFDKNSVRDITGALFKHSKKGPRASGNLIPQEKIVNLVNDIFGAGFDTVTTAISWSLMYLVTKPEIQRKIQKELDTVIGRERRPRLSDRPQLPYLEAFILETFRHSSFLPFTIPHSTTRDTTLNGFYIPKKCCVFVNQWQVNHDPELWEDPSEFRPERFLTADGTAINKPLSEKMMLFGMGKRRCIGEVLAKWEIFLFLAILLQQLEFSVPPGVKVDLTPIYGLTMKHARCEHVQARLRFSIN
# [25] = AUC(t) in mouse at 5 mg/kg, iv measured after 24 hrs; type: ADME, organism-based; design: route intravenous, dose 5 mg/kg, time 24 hrs; conditions: in vivo
# [26] = AUC(infinity) in mouse at 5 mg/kg, po measured after 24 hrs; type: ADME, organism-based; design: route oral, dose 5 mg/kg, time 24 hrs; conditions: in vivo
# [27] = Metabolic stability in human liver microsomes assessed as parent compound remaining measured after 30 mins; type: ADME, Microsome; conditions: read-out: Stabilty
# [28] = Metabolic stability in mouse liver microsomes assessed as parent compound remaining measured after 30 mins; type: ADME, Microsome; conditions: read-out: Stabilty
smiles,measurement,setting,value
COc1ccc(CCN(Cc2ccc(C(=O)O)cc2)c2nc3cncnc3s2)cc1,Activity,[1],inactive
COc1ccc(CCN(Cc2ccc(C(=O)O)cc2)c2nc3cc(Cl)cnc3s2)cc1,Activity,[1],inactive
COc1ccc(CCN(Cc2ccc(C(=O)O)cc2)c2nc3ccc[n+]([O-])c3s2)cc1,Activity,[1],inactive
COc1ccc(CCN(Cc2ccc(C(=O)O)cc2)c2nc3ccc(C(=O)O)cc3s2)cc1,Activity,[1],inactive
CCC(C(=O)O)n1/c(=N/C(=O)c2cccc(C(F)(F)F)c2)sc2cc(F)c(F)cc21 (centres undefined),Kd,[2],49.2 µM
same,Activity,[3],Active
same,EC50,[4],8.5 µM
COc1ccc(CCN(Cc2ccc(C(=O)O)cc2)c2nc3cc(NC(=O)Cc4ccc(OC)cc4)ccc3o2)cc1,Activity,[1],Active
COc1ccc(CCN(Cc2ccc(C(=O)O)cc2)c2nc3ncccc3s2)cc1,Activity,[1],inactive
COc1ccc(CCN(Cc2ccc(C(=O)O)cc2)c2nc3ccccc3o2)cc1,Activity,[1],Active
COc1ccc(CCN(Cc2ccc(C(=O)O)cc2)c2nc3cc(F)c(F)c(F)c3s2)cc1,inhibition at 3 µM,[1],28%
Cc1cc(=O)n(-c2ccccc2)n1C [ANTIPYRINE],"Papp at 4 h, 50 µM",[5],1.94 ×10⁻⁶ cm/s
COc1ccc(CCN(Cc2ccc(C(=O)O)cc2)c2nc3ccc(CO)cc3s2)cc1,Activity,[1],inactive
COc1ccc(CCN(Cc2ccc(C(=O)O)cc2)c2nc3cc(F)cc(F)c3[nH]2)cc1,Activity,[1],inactive
COc1ccc(CCN(Cc2ccc(C(=O)O)cc2)c2nc3cccnc3o2)cc1,Activity,[1],Active
COc1ccc(CCN(Cc2ccc(C(=O)O)cc2)c2nc3cnccc3s2)cc1,Activity,[1],inactive
COc1ccc(CCN(Cc2ccc(C(=O)O)cc2)c2nc3cc([N+](=O)[O-])ccc3o2)cc1,Activity,[1],Active
COc1ccc(CCN(Cc2ccc(C(=O)O)cc2)c2nc3cc(NC(=O)c4ccc(N5CCN(C)CC5)cc4)ccc3o2)cc1,Activity,[1],inactive
COc1ccc(CCN(Cc2ccc(C(=O)O)cc2)c2nc3cccnc3s2)cc1,AUC(0-inf),[6],216 ng·h/mL
same,Cmax,[7],40 ng/mL
same,Vd,[8],149 L/kg
same,activity at 10 µM,[9],92.2%
same,inhibition at 3 µM,[1],70%
same,Activity,[10],Non-Toxic
same,Kd,[2],5.75 µM
same,remaining at 0.5 h,[11],79.5%
same,remaining at 0.5 h,[12],73%
same,Activity,[3],Active
same,clearance,[13],392 mL/min/kg
same,bioavailability,[14],87.9%
same,Activity,[15],Active
same,"Papp at 4 h, 50 µM",[5],22.2 ×10⁻⁶ cm/s
same,half-life,[16],6.05 h
same,activity at 10 µM,[17],98.4%
same,EC50,[18],0.081 µM
same,activity at 10 µM,[19],97.9%
same,AUC(0-t) at 24 h,[20],168 ng·h/mL
same,half-life,[21],1.56 h
same,Tmax,[22],4.17 h
same,activity at 10 µM,[23],74.6%
same,activity at 10 µM,[24],91.1%
same,AUC(0-t) at 24 h,[25],191 ng·h/mL
same,AUC(0-inf),[26],192 ng·h/mL
same,remaining at 0.5 h,[27],62.8%
same,remaining at 0.5 h,[28],65.8%
CC(=O)N1CCN(c2ccc(OCC3COC(Cn4ccnc4)(c4ccc(Cl)cc4Cl)O3)cc2)CC1 (centres undefined) [KETOCONAZOLE],activity at 10 µM,[9],> 100%
same,activity at 10 µM,[17],31.8%
same,activity at 10 µM,[23],> 100%
same,activity at 10 µM,[24],> 100%
